Test results reported in patent publication US4356188A, “1-Naphthyl-acetic acid derivatives and their therapeutic applications” (Institut de Recherche Scientifique "I.R.S.", priority 1978, dated 1982).
Read-outs that look alike come from different tables or passages of the source.

Columns and labels:
[1] = Ulcerogenic activity (Robert & Nezamis, modified by Lwoff); parameters: species or system rats of Ch. River strain; details: rat, in vivo
Method: The technique used is that according to Robert & Nezamis (Proc. Soc. Exp. Biol. Med., 1958,99,443-447) as modified by Lwoff (J. Pharmacol. (Paris) 1971, 2, 81-83).
Groups of 20 rats of Ch. River strain (average weight: 130 g) kept on a water diet for the 24 hours prior to the test, are orally administered the test materials, at dosages of 50-100-200-400 and 800 mg/kg. A reference group is administered only neutral olive oil, at a dosage of 1 ml/100 g.
Six hours later, the animals are sacrificed by bulbar trauma, after which their stomachs are cut out, opened along the great curvature and rated according to a scale from 0 to 3, according to the extent of the ulceration.
The ulceration index for each dosage is calculated according to the following formula: [formula]
With this scoring method, a 100% ulceration index is equal to 300. The 50% ulcerogenic dosage (UD 50) is that which corresponds to an index of 150.

in vivo = details: rat, po, read-out: Acute toxicity LD 50
Method: Groups of 5 male CH. River rats, having an average weight of 125 g, kept on a water diet for 18 hours prior to the test, are orally administered the test materials, dissolved in neutral olive oil (1 ml/100 g), at dosages of 250-500-1000 and 2000 mg/kg.
The death rate is recorded 7 days after the administration: the lethal dose 50 (LD 50) is determined according to the method by Litchfield & Wilcoxon.

[2] = Anti-pyretic activity: brewer's yeast-induced fever; assay type: in vivo; details: Rattus norvegicus; rats, oral, 17 hours after brewer's yeast; mean of 5 hourly determinations; dosages in method 25-50-100 mg/kg; read-out: Anti-pyretic activity ID 50
Method: After determination of the rectal temperature, rats are sub-cutaneously administered 1 ml/100 g of a 20% brewer's yeast suspension, and are put on a water diet. 17 hours later, their temperature is again determined. The mean increase of the rectal temperature, under such experimental conditions, is about 1.5° C. The various test materials are then orally administered to groups of 10 rats (average weight: 140 g) at dosages of 25-50 and 100 mg/kg. A fourth group (control) is administered only olive oil (1 ml/100 g). The temperature drop subsequent to the treatment is followed hourly, for a period of time of 5 hours. The mean percent inhibition is calculated by effecting the mean of the 5 determinations, with respect to the value 1.5° C.

[3] = Antalgic activity: phenylbenzoquinone-induced writhing (Sigmund, modified); assay type: in vivo, male Ch. River mice; details: Mus musculus, po; mice, p.o., 30 minutes before phenylbenzoquinone; spasms counted fifth to tenth minute; dosages in method 25-50-100 mg/kg; read-out: Antalgic activity ID 50
Method: The method used is that according to Sigmund and co-workers (Soc. Exp. Biol. Med. 1957, 95, 729) as modified by Hendershot & Forsaith (J. Pharm. Exp. Therap. 1959, 125, 237-240) and Lines & Gouret (J. Pharm. (Paris) 1972, 3, 513-515). Intraperitoneal administration of 0.25 ml/20 g, in mice, of a 0.02% phenylbenzoquinone solution in 5% alcohol, produces the development of a pain syndrome which is characterized by writhing movements and by hollow flanks. Treatment of groups of 10 male Ch. River mice (average weight: 20 g) at dosages of 25-50 and 100 mg/kg p.o. (a control group being administered only neutral olive oil; 0.5 ml/20 g) is effected 30 minutes prior to phenylbenzoquinone administration. The ID 50 is calculated as previously indicated, from the percent inhibition of the spasms counted from the fifth to the tenth minute that follow the injection of the algogenic agent.

[4] = Anti-inflammatory activity: carrageenin-induced plantar edema test (Winter); assay type: in vivo; details: Rattus norvegicus; rats, oral, 1 hour before 1% carrageenin; mean of 7 hourly determinations; dosages in method 25-50-100 mg/kg; read-out: Anti-inflammatory activity ID 50
Method: The test selected is the test of the carrageenin-induced plantar edema, according to Winter (Proc. Soc. Exp. Biol., 1961, 111, 544). […] A fourth group (control) is administered only neutral olive oil (1 ml/100 g). One hour after the treatment, 0.1 ml of a 1% carrageenin suspension is injected in the left plantar aponevrosis. The intensity of the edema is evaluated by immersing the inflamed paw in a mercury plethystometer. The percent inhibition of the edema is calculated from the mean value of the 7 determinations made hourly after carrageenin administration. The dosage which inhibits inflammation by 50% (ID 50) is determined in the same manner as previously described.

Structure (SMILES)	TD50 at 6 h ([1]; po) [mg/kg]	LD50 at 168 h (in vivo) [mg/kg]	ED50 [2] [mg/kg]	ED50 [3] [mg/kg]	ED50 [4] [mg/kg]	TD50 at 6 h ([1]; rats, oral, 6 hours, dose giving ulceration index 150, dosages in method 50-800 mg/kg, read-out: Ulcerogenic activity UD 50) [mg/kg]
CC(C)Cc1cccc2c(CC(=O)O)cccc12 [Derivative 1, [5-isobutyl-1-naphthyl]acetic acid]	> 800	600	0.7	24	15	–
CC(C)Cc1cccc2c(C(C)C(=O)O)cccc12 (centres unmarked) [Derivative 2, 2-[5-isobutyl-1-naphthyl]propionic acid]	–	130	< 1	4	5	–
CC(C)Cc1ccc(C(C)C(=O)O)cc1 (centres unmarked) [ibuprofen, reference compound]	220	–	12	9	38	–
COc1ccc2cc([C@H](C)C(=O)O)ccc2c1 [naproxen, reference compound]	–	–	4.1	10.6	3	43
